≈ marks a conversion by molar mass, not a printed value.
Legend:
[1] = test system: Mycobacterium tuberculosis; assay: Antimycobacterial activity against Mycobacterium tuberculosis H37Rv after 16 to 24 hrs by microplate alamar blue assay; format: functional
Vero = assay: Cytotoxicity against african green monkey Vero cells after 72 hrs by tetrazolium dye assay; format: cell-based; conditions: Chlorocebus sabaeus
[2] = test system: Mycobacterium tuberculosis; assay: Antimycobacterial activity against Mycobacterium tuberculosis H37Rv expressing pFCA-luxAB after 10 days by luminescence-based low-oxygen recovery assay; format: functional; conditions: 240 h
[3] = test system: Mycobacterium tuberculosis; assay: Antitubercular effect in Mycobacterium tuberculosis infected BALB/c mouse assessed as CFU reduction at 100 mg/kg, po administered 5 days a week for 3 weeks relative to PA-824; format: functional
[4] = Metabolic stability in mouse liver microsomes after 1 hr at 37 degC; format: ADME, Microsome
[5] = Thermodynamic solubility in water at pH 7.4 at; format: physicochemical; conditions: for solubility thermodynamic: water
Liver microsomes = assay: (§1) Metabolic stability in human liver microsomes after 1 hr at 37 degC; format: ADME, Microsome; conditions: microsomes, 1 h
[6] = as §1; format: ADME, Microsome; conditions: liver microsomes, read-out: Stability

SMILES	MIC [1]	IC50 (Vero)	MIC [2]	fold change (FC) [3]	Stability ([4]; microsomes, 1 h)	solubility thermodynamic [5]	Stability (Liver microsomes)	remaining at 1 h ([4]; liver microsomes, read-out: Stability)	solubility ([5]; buffer)	remaining at 1 h [6]
O=[N+]([O-])c1cn2c(n1)OC[C@@H](OCc1ccn(-c3ccc(OC(F)(F)F)cc3)n1)C2	0.05 µM (≈ 0.0213 µg/mL)	> 128 µM	0.61 µM (≈ 0.259 µg/mL)	41	67%	23 µg/mL (≈ 54.1 µM)	87%			
O=[N+]([O-])c1cn2c(n1)OC[C@@H](OCc1ccc(OC(F)(F)F)cc1)C2 [PRETOMANID]		> 128 µM	2.6 µM (≈ 0.934 µg/mL)			11 µg/mL (≈ 30.6 µM)				
Cn1nc(-c2ccc(OC(F)(F)F)cc2)cc1CO[C@@H]1COc2nc([N+](=O)[O-])cn2C1	0.06 µM (≈ 0.0264 µg/mL)	> 128 µM	0.58 µM (≈ 0.255 µg/mL)	12				81%	0.88 µg/mL (≈ 2 µM)	86%

Reference: ChEMBL document CHEMBL1156790, “Synthesis and structure-activity relationships of antitubercular 2-nitroimidazooxazines bearing heterocyclic side chains” (J Med Chem, 2010)
